Source: patent publication US6573059B1, “Use of the regulatory subunit of the camp dependent protein kinase (PKA) from dictyostelium for camp measurements” (RMF Dictagene S.A., priority 2000, dated 2003)
Values joined by “and” are separate entries in the source; they are usually repeats but may differ in a detail not shown here. Equal entries are not always repeated. Where two headings read alike, the source gives them in different places. Values belong to the compound of their own block, whether it stands above or below them.

Columns and labels:
[1] = biological target: T1, R26-GFP (truncated R subunit of cAMP dependent protein kinase (PKA), cAMP binding site A, fused to w7 GFP) (Dictyostelium discoideum, UniProt P05987); assay: FRET titration and competition for cyclic nucleotide binding to purified R26-GFP
T1 sequence (P05987 1-170): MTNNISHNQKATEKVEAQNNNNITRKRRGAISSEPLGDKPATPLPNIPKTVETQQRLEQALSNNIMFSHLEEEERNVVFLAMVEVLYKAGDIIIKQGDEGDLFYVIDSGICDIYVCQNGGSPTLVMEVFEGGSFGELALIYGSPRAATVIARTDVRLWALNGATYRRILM
Experimental: Fluorescently labelled cGMP (8-{{2-{(Fluoresceinylthioureido)amino}ethyl}thio} guanosine-3′, 5′-cyclic, Biolog) was added to purified R26-GFP and fluorescence emission recorded while exciting at 433 nm.
In a further experiment, unlabelled cAMP was added in a 5 fold excess over 8-fluo-cGMP.
The concentration of labelled 8-fluo-cGMP was varied while recording fluorescence changes (FIG. 3, inset).
In order to measure the real KD for cAMP, a competition experiment was performed by varying stepwise 8-fluo-cGMP concentration For each 8-fluo-cGMP concentration, increasing concentrations of unlabelled cAMP was added, allowing to calculate the apparent KD for cAMP in each Case (FIG. 4).
For FRET measurements, R-26-GFP was diluted to about 0.1 μM. Excitation was performed at 433 nm, while emission was recorded over a range from 450 to 550 nm in a PTI C60 spectrofluorimeter (Photon Technology International).
Different concentrations of 8-Fluo-cGMP (8-{{2-{(Fluoresecinylthioureido)amino}ethyl}thio} guanosine 3′, 5′-cyclic monophosphate, Biolog) were added as indicated (5 fold excess in FIG. 2, open squares) and emission spectra were recorded again. […] In competition experiments, unlabelled cAMP was added at the indicated concentrations (FIG. 3, 100 μM).

[2] = system: double GFP-R (R subunit with w7 and S65T GFPs flanking cAMP binding site A); settings: 500 μM cAMP, emission spectrum, excitation 434 nm
Experimental: The spectral properties of the double GFP-R were determined using a spectrofluorimeter PTI C60 with photomultiplicator. […] The shoulder corresponds to the emission of the w7, whereas the major peak represents S65T emission.
A conformational change could also result simply from the binding of cAMP. The double GFP-R was incubated with increasing concentrations of cAMP.
Emission spectra from 450 to 550 nm were recorded using a fixed excitation at 434 nm with a bandwidth of 8 nm and an integration time between 0.2 and 1 sec (FIG. 6).
In a second experiment, partially purified double GFP-R was incubated in the presence of increasing concentration of cAMP (FIG. 6B).

[3] = biological target: regulatory subunit of the cAMP dependent protein kinase (PKA) from Dictyostelium (Dictyostelium discoideum, UniProt P05987); settings: read-out: KD for cAMP; Dictyostelium R subunit, background section; cited from earlier work
[4] = biological target: mammalian enzymes (PKA regulatory subunit); settings: read-out: KD for cAMP, background section; cited from earlier work

Sequence of regulatory subunit of the cAMP dependent protein kinase (PKA) from Dictyostelium (P05987 whole entry): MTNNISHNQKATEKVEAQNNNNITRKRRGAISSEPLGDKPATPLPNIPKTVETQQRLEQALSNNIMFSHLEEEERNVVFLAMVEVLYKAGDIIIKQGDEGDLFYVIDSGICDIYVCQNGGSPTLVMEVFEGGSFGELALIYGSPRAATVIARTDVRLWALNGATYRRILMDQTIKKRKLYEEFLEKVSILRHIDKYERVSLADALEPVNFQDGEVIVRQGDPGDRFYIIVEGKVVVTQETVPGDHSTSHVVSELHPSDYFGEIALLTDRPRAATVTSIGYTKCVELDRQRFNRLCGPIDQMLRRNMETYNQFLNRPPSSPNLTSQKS

Structure (SMILES): Nc1ncnc2c1nc(SCCNC(=S)Nc1ccc3c(c1)C(=O)OC31c3ccc(O)cc3Oc3cc(O)ccc31)n2[C@@H]1O[C@@H]2COP(=O)(O)O[C@H]2[C@H]1O [8-fluo-cAMP, 8-{{2-{(Fluoresceinylthioureido)amino}ethyl}thio}adenosine-3′,5′-cyclic monophosphate]
- Kd [1]: ~4.5 nM

Structure (SMILES): Nc1nc2c(nc(SCCNC(=S)Nc3ccc4c(c3)C(=O)OC43c4ccc(O)cc4Oc4cc(O)ccc43)n2[C@@H]2O[C@@H]3COP(=O)(O)O[C@H]3[C@H]2O)c(=O)[nH]1 [8-fluo-cGMP, 8-{{2-{(Fluoresecinylthioureido)amino}ethyl}thio} guanosine 3′, 5′-cyclic monophosphate]
- Kd [1]: ~80 nM

- amplitude change compared to double GFP/R alone [2]: about 10%
- Kd ([1]; true KD for cAMP, competition of unlabelled cAMP with 8-fluo-cGMP, apparent KDs extrapolated to 0): 20 nM and ~20 nM
Structure (SMILES): Nc1ncnc2c1ncn2[C@@H]1O[C@@H]2COP(=O)(O)O[C@H]2[C@H]1O [cAMP]
- Kd [3]: ~20 nM
- Kd [4]: 10 to 30 nM

- Kd ([1]; reverse competition experiment, read-out: KD for cGMP): ~1850 nM
Structure (SMILES): Nc1nc2c(ncn2[C@@H]2O[C@@H]3COP(=O)(O)O[C@H]3[C@H]2O)c(=O)[nH]1 [cGMP]
